Laboratory results: patent US20100196995A1, “Systems and methods for maintaining the dominance and increasing the biomass production of nannochloropsis in an algae cultivation system” (priority 2009, published 2010)
Marks after values point to notes of the source that are not given here.

Experiments:
Assay type in all cases: cell-based
Nannochloropsis [1] = experiment: Example One: pond culture passed through ozone generator, effect on Nannochloropsis
Method: (§1) In the following examples, Nannochloropsis was grown in outdoor, open, three-square meter ponds in Vero Beach, Florida. The climate in Vero Beach is semitropical, with mild, cool winters and hot, humid summers. It is a challenging climate for keeping outdoor algal cultures stable and productive. The overnight warmth encourages predation by protozoa, rotifers, and crustaceans. The humidity allows the airborne transport of competing algae, and thus increases the rate of invasion.
(§2) Ozone was added to an algal cultivation system using a commercial ozone generator with accompanying liquid pump, venturi, and air dryer. The machine used was a small model capable of generating 10 grams of ozone per hour. The flow rate of liquid through the generator was about 16 liters per minute. At fifty percent (50%) of maximal ozone generation, the concentration of ozone in the liquid after one pass through the ozone generator was 4.6 mg/L, and at 100% was 9.6 mg/L.
(§3) Two three-square meter ponds were started by taking 500L of culture from a larger pond and passing it through the ozone generator once. One pond was started with the ozonator setting at 50%, the other pond was started with the ozonator setting at 100%. The original algal culture had numerous clumps of Nannochloropsis, cell debris, various diatoms, and some ciliated protozoa grazers.
The two algal cultures were allowed to grow for two days without dilution, but with nutrient addition to see whether the ozone treatment changed the production of biomass and the subsequent stability of the cultures. After two days of batch growth, each pond was diluted one third per day and recirculated each day through the ozone generator for 30 minutes. During this time period about 500L, or one volume equivalent was treated. As before, one pond was passed through the machine at 50% setting and one at 100% setting.

diatoms [2] = experiment: Example One: pond culture passed through ozone generator, effect on diatoms; settings: ozonator setting 50% (4.6 mg/L) or 100% (9.6 mg/L)
Method: as §1, §2, §3

[3] = test system: ciliated protozoa grazers; experiment: Example One: pond culture passed through ozone generator, effect on grazers; settings: ozonator setting 50% (4.6 mg/L) or 100% (9.6 mg/L)
Method: as §1, §2, §3

Nannochloropsis [4] = experiment: Example Two: ozone skid tests on outdoor ponds D4, MP1, 25A, Nannochloropsis productivity and resistance
Method: as §1
(§4) An ozone skid was assembled on-site utilizing a dry air feed ozone generator capable of producing 10 g/h of ozone.
(§5) A small pump was connected to the system with the ozone added to the liquid recycle line via a Mazzei gas to liquid injector capable of flow rates between 13.2-28.35 1pm@pressures ranging from 15-25 psi. Tests were run on ponds D4 (3 m^2 surface area), MP1 (3 m^2 surface area), and 25A (25 m^2 surface area) with salinities ranging from 20-24 ppt using flow rates of 13.2 and 15.6 1pm@20 psi. The ozonator is equipped with a variable transformer that offers the ability to vary ozone dosage between 0-100%. Tests were run at ozone concentrations of 25%, 50%, 75%, and 100% at flow rates of 13.2 and 15.6 1pm.
Productivity results of the three pond systems run at the high concentrations are listed below:
(§6) Nannochloropsis was unaffected by ozone at these dosages.
(§7) Using the skid mounted system as an in-situ transfer treatment to inoculate new ponds was also tested with very favorable results. Both D4 (3 m^2) and MP1 (3 m^2) were filled with ozone treated inoculums from one of the larger ponds that had large amounts of clumps and decreasing productivity. The effect of this was that most of the clumps (>80%) were broken up and the grazers present inside of the clumps were destroyed as well as free grazers and diatoms in the solution with no effect on Nannochloropsis.

diatoms [5] = experiment: Example Two: ozone skid tests on outdoor ponds, ozone disinfection of diatoms
Method: as §1, §4, §5, §6, §7

grazers = experiment: Example Two: ozone skid tests on outdoor ponds, ozone disinfection of grazers
Method: as §1, §4, §5, §6, §7

Nannochloropsis [6] = experiment: Exposure of Nannochloropsis cultures to extremely high (shock) levels of ozone; settings: above 30 milligrams/liter ozone, exposure not prolonged
Description: At alternative step 135, if the level or amount of predators and/or invaders exceeds an actual or desired level, the ozone concentration of the algae cultivation system may be adjusted by applying an effective “shock” amount of ozone. The ozone concentration of the algae cultivation system may be adjusted via the inlet stream that feeds into the algae cultivation system. Applying an effective shock amount of ozone to the inlet stream may result in an initial ozone concentration of the inlet stream above 10 milligrams/liter, which feeds into the algae cultivation system. An unexpected result observed via the experiments described herein is that Nannochloropsis cultures exposed to extremely high levels of ozone (above 30 milligrams/liter) recover (i.e., the Nannochloropsis cultures were not killed), provided the exposure to the ozone is not prolonged. […] Note: steps 130 and 135 may be performed in alternating or rotating fashion, provided the ozone concentration is properly observed.

[7] = 25 m^2 pond 25A, side stream treated
[8] = in-situ transfer treatment of inoculums for D4 and MP1
[9] = 3 m^2 ponds D4 and MP1, concentrations of ozone tested

O=[O+][O-] [Ozone, ozone]
Survival of Nannochloropsis after one pass through the ozone generator (Nannochloropsis [1]; 500L culture, one pass, ozonator setting 50% (4.6 mg/L) or 100% (9.6 mg/L)): only single cells of Nannochloropsis survived
Ill effects from the ozone on Nannochloropsis ponds (Nannochloropsis [1]; both ponds (50% and 100% setting), daily 30 minute recirculation for three days): no ill effects
Production of biomass above that of a control pond (Nannochloropsis [1]; both ponds (50% and 100% setting), recirculated 30 minutes per day through ozone generator for three days, diluted one third per day): 20%
Clumps of Nannochloropsis after one pass through the ozone generator (Nannochloropsis [1]; one pass, ozonator setting 50% (4.6 mg/L) or 100% (9.6 mg/L)): completely broken up
Diatoms after one pass through the ozone generator (diatoms [2]): killed
Grazers after one pass through the ozone generator [3]: killed
Effect of ozone on Nannochloropsis (Nannochloropsis [4]; 3 m^2 ponds D4 and MP1, at these dosages): unaffected
Clumping after exposure to ozone (Nannochloropsis [4]; [7]): clumping did not become as dramatic of a problem
Productivity (Nannochloropsis [4]; Pond 25A (25 m^2), Jul. 09, 2008, total 5950 mg O3, 5615 liters recycled): 16.1 g/m^2/day
Productivity (Nannochloropsis [4]; Pond 25A (25 m^2), Jul. 10, 2008, total 5950 mg O3, 5615 liters recycled): 4.6 g/m^2/day
Productivity (Nannochloropsis [4]; Pond 25A (25 m^2), Jul. 11, 2008, total 5950 mg O3, 5615 liters recycled, pond temperature reached 39° C.): −8.3* g/m^2/day
Productivity (Nannochloropsis [4]; Pond 25A (25 m^2), Jul. 12, 2008, total 5950 mg O3, 5615 liters recycled): 12.2 g/m^2/day
Productivity (Nannochloropsis [4]; Pond 25A (25 m^2), Jul. 13, 2008, total 5950 mg O3, 5615 liters recycled): 10.7 g/m^2/day
Productivity (Nannochloropsis [4]; Pond 25A (25 m^2), Jul. 14, 2008, total 5950 mg O3, 5615 liters recycled): 8.0 g/m^2/day
Productivity (Nannochloropsis [4]; Pond D4 (3 m^2), Jul. 09, 2008, total 500 mg O3, 470 liters recycled): 15.4 g/m^2/day
Productivity (Nannochloropsis [4]; Pond D4 (3 m^2), Jul. 10, 2008, total 500 mg O3, 470 liters recycled): 16.1 g/m^2/day
Productivity (Nannochloropsis [4]; Pond D4 (3 m^2), Jul. 11, 2008, total 500 mg O3, 470 liters recycled): 16.0 g/m^2/day
Productivity (Nannochloropsis [4]; Pond D4 (3 m^2), Jul. 12, 2008, total 500 mg O3, 470 liters recycled): 8.4 g/m^2/day
Productivity (Nannochloropsis [4]; Pond D4 (3 m^2), Jul. 13, 2008, total 500 mg O3, 470 liters recycled): 12.2 g/m^2/day
Productivity (Nannochloropsis [4]; Pond D4 (3 m^2), Jul. 14, 2008, total 500 mg O3, 470 liters recycled): 14.9 g/m^2/day
Productivity (Nannochloropsis [4]; Pond MP1 (3 m^2), Jul. 09, 2008, total 500 mg O3, 470 liters recycled): 13.3 g/m^2/day
Productivity (Nannochloropsis [4]; Pond MP1 (3 m^2), Jul. 10, 2008, total 500 mg O3, 470 liters recycled): 17.2 g/m^2/day
Productivity (Nannochloropsis [4]; Pond MP1 (3 m^2), Jul. 11, 2008, total 500 mg O3, 470 liters recycled): 16.9 g/m^2/day
Productivity (Nannochloropsis [4]; Pond MP1 (3 m^2), Jul. 12, 2008, total 500 mg O3, 470 liters recycled): 9.0 g/m^2/day
Productivity (Nannochloropsis [4]; Pond MP1 (3 m^2), Jul. 13, 2008, total 500 mg O3, 470 liters recycled): 16.0 g/m^2/day
Productivity (Nannochloropsis [4]; Pond MP1 (3 m^2), Jul. 14, 2008, total 500 mg O3, 470 liters recycled): 13.4 g/m^2/day
Effect on Nannochloropsis (Nannochloropsis [4]; [8]): no effect
Clumps broken up (Nannochloropsis [4]; in-situ transfer treatment: D4 and MP1 filled with ozone treated inoculums from a larger pond with large amounts of clumps): > 80%
Clump formation after daily repeated exposure to ozone (Nannochloropsis [4]; small 3 m^2 ponds D4 and MP1): clumps did form in large numbers
Effect of ozone exposure on diatoms present (diatoms [5]; [9]): adversely affected after exposure to ozone resulting in their elimination
Effect of ozone exposure on diatoms (diatoms [5]; [7]): similarly affected
Free diatoms in the solution (diatoms [5]; [8]): destroyed
Effect of ozone exposure on grazers present (grazers; [9]): adversely affected after exposure to ozone resulting in their elimination
Effect of ozone exposure on grazers (grazers; [7]): similarly affected
Grazers inside of the clumps and free grazers in the solution (grazers; [8]): destroyed
Outcome of Nannochloropsis cultures after extremely high levels of ozone (Nannochloropsis [6]): recover
